ChEMBL document CHEMBL5523762, “Discovery of Potent and Selective G9a Degraders for the Treatment of Pancreatic Cancer” (J Med Chem, 2024)
The source made the active and inactive calls. The rule behind the calls is not given here.

Legend:
ASPC1 [1] = assay: Antiproliferative activity against human ASPC1 cells assessed as inhibition of cell growth measured after 72 hrs by SRB assay; format: functional, cell-based
PANC-08-13 = assay: Antiproliferative activity against human PANC-08-13 cells assessed as inhibition of cell growth measured after 72 hrs by SRB assay; format: functional, cell-based
ASPC1 [2] = assay: Synergistic antiproliferative activity against human ASPC1 cells at 0 to 15 uM incubated for 72 hrs in presence of MRTX1133 by SRB assay; format: functional, cell-based; conditions: dose 0-15 µM
Panc 02.03 = assay: Synergistic antiproliferative activity against human Panc 02.03 cells assessed as combination index for ED90 upto 20 uM incubated for 72 hrs in presence of MRTX1133; format: functional
KP-4 = assay: Induction of apoptosis in human KP-4 cells at 10 uM incubated for 24 hrs in presence of 5 uM MRTX1133 by Annexin V-FITC/PI staining based flow cytometry analysis; format: functional, cell-based
[3] = Half life in male ICR mouse at 20 mg/kg, ip measured upto 24 hrs by LC-MS/MS analysis; format: ADME, organism-based; conditions: in vivo
[4] = biological target: T1, Protein cereblon/Histone-lysine N-methyltransferase EHMT2 (Homo sapiens, UniProt Q96KQ7+Q96SW2); assay: PROTAC activity at CRBN/G9a in human PANC-1 cells assessed as induction of G9a degradation at 0.1 uM measured after 24 hrs by Western blot analysis; format: cell-based
[5] = biological target: Protein cereblon/Histone-lysine N-methyltransferase EHMT1 (Homo sapiens) (UniProt Q9H9B1+Q96SW2); assay: PROTAC activity at CRBN/GLP in human PANC-1 cells assessed as induction of GLP degradation at 0.008 to 10 uM measured after 8 hrs by Western blot analysis; format: cell-based; conditions: dose 0.008-10 µM
PANC-1 [6] = assay: Effect on H3K4me1 level in human PANC-1 cells at 0.04 to 10 uM measured after 24 hrs by Western blot analysis; format: functional, cell-based; conditions: dose 0.04-10 µM
PANC-1 [7] = assay: Effect on H3K4me2 level in human PANC-1 cells at 0.04 to 10 uM measured after 24 hrs by Western blot analysis; format: functional, cell-based; conditions: dose 0.04-10 µM
PANC-1 [8] = assay: Effect on H3K23me3 level in human PANC-1 cells at 0.04 to 10 uM measured after 24 hrs by Western blot analysis; format: functional, cell-based; conditions: dose 0.04-10 µM
PANC-1 [9] = assay: Effect on H3K27me3 level in human PANC-1 cells at 0.04 to 10 uM measured after 24 hrs by Western blot analysis; format: functional, cell-based; conditions: dose 0.04-10 µM
PANC-1 [10] = assay: Effect on GSPT1 level in human PANC-1 cells at 0.008 to 10 uM measured after 8 hrs by western blot analysis; format: functional, cell-based; conditions: dose 0.008-10 µM
[11] = biological target: T1, Protein cereblon/Histone-lysine N-methyltransferase EHMT2; assay: PROTAC activity at CRBN/G9a in human PANC-1 cells assessed as induction of G9a degradation at 1 uM in presence of 50 uM cycloheximide measured after 4 hrs by Western blot analysis; format: cell-based
PANC-1 [12] = assay: Effect on G9a mRNA expression at transcriptional level in human PANC-1 cells at 0.1 to 10 uM by RT-qPCR analysis; format: functional, cell-based; conditions: dose 0.1-10 µM
[13] = biological target: T1, Protein cereblon/Histone-lysine N-methyltransferase EHMT2; assay: PROTAC activity at CRBN/G9a in human PANC-1 cells assessed as induction of G9a degradation at 1 uM pretreated with thalidomide for 2 hrs followed by compound addition and measured after 8 hrs by Western blot analysis; format: cell-based

T1 sequence (Q96KQ7 2-1210 limits assumed): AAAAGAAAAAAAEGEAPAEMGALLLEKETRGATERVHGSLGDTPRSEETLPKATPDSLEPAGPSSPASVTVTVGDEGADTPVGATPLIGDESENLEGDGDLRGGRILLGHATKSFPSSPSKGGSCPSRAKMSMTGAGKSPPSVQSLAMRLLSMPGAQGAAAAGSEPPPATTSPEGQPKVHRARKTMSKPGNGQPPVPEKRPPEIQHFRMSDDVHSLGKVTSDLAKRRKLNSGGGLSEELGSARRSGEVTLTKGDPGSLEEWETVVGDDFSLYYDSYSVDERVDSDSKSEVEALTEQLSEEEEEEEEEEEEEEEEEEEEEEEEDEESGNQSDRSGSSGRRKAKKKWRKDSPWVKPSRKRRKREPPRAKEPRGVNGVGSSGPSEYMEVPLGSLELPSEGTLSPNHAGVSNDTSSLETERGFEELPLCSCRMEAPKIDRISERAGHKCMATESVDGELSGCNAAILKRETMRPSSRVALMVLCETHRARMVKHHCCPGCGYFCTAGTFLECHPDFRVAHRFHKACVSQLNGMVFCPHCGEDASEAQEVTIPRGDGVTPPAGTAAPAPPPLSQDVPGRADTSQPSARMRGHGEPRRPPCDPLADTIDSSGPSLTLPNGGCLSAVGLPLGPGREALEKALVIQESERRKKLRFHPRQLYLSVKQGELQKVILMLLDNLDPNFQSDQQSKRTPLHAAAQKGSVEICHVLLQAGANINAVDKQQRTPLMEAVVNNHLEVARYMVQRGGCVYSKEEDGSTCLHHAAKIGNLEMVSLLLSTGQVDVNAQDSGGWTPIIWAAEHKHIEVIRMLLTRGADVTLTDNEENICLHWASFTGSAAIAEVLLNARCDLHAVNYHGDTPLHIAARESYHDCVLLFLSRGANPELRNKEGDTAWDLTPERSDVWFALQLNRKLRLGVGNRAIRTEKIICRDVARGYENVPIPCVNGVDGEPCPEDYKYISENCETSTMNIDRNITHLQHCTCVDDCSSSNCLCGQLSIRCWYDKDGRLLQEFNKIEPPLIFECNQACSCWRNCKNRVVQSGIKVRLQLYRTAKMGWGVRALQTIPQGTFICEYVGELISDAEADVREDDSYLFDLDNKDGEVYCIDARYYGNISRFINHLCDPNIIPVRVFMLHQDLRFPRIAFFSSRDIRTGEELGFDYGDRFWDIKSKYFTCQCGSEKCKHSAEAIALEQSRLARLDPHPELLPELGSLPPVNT
T1 sequence (Q96SW2 whole entry partner): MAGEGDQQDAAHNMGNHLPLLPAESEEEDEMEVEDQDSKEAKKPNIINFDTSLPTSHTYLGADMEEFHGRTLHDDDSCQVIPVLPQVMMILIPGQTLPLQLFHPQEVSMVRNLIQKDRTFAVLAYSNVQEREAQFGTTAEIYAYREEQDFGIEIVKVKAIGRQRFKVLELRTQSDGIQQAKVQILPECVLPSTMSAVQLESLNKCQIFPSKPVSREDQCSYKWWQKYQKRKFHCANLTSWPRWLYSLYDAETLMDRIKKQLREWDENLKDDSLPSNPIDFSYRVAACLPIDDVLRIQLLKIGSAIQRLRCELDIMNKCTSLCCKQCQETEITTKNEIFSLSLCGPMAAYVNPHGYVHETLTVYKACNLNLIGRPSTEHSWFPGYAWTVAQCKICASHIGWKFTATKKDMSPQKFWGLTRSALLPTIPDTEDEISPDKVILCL
Protein cereblon/Histone-lysine N-methyltransferase EHMT1 (Homo sapiens), sequence (Q96SW2 whole entry, looked up): as the sequence (Q96SW2 whole entry partner) above
Protein cereblon/Histone-lysine N-methyltransferase EHMT1 (Homo sapiens), sequence (Q9H9B1 whole entry, looked up): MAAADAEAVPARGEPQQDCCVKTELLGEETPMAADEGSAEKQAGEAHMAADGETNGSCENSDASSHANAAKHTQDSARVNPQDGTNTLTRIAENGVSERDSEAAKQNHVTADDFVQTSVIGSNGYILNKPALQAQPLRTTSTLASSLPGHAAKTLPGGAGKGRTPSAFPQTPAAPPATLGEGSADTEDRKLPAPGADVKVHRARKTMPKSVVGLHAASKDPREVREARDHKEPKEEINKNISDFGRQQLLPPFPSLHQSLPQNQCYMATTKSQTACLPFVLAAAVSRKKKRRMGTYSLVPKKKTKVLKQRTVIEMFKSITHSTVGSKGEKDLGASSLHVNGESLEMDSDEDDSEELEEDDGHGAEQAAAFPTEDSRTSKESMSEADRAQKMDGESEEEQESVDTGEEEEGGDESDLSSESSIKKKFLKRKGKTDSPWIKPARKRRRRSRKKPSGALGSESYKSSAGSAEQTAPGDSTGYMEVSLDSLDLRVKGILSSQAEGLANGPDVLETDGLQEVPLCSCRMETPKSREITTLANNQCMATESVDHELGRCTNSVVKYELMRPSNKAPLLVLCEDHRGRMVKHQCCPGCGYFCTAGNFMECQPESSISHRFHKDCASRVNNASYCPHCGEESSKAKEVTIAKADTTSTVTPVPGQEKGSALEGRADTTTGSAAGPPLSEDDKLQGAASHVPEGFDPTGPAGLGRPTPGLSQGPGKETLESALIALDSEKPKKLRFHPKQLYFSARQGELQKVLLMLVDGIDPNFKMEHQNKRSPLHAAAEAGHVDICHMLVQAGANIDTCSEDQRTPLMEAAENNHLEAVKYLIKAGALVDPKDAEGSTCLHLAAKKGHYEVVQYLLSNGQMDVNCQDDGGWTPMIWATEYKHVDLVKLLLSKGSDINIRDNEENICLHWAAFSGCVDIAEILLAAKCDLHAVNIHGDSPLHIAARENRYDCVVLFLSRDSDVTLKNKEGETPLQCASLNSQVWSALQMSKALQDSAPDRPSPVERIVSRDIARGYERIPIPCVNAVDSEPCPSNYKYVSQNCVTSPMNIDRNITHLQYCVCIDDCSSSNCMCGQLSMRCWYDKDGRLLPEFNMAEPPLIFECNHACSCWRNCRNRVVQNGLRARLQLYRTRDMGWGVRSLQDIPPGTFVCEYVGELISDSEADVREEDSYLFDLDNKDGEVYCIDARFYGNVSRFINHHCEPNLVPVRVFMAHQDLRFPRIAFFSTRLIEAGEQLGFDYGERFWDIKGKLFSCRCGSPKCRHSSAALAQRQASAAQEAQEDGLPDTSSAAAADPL

half-life [3]: 4.2 h
Activity [4]: Active
Activity [5]: inactive
Activity [11]: Active
Activity [13]: inactive
Structure (SMILES): COc1cc2c(NC3CCN(CCCC(=O)NCCCCCCCCNc4cccc5c4C(=O)N(C4CCC(=O)NC4=O)C5=O)CC3)nc(C3CCCCC3)nc2cc1OCCCN1CCCC1 (stereo unspecified)
Activity (ASPC1 [1]): Active
Activity (PANC-08-13): Active
Activity (ASPC1 [2]): Active
CI (Panc 02.03): <0.4
Activity (KP-4): Active
Activity (PANC-1 [6]): inactive
Activity (PANC-1 [7]): inactive
Activity (PANC-1 [8]): inactive
Activity (PANC-1 [9]): inactive
Activity (PANC-1 [10]): inactive
Activity (PANC-1 [12]): inactive
